In ChEMBL document CHEMBL6103575, “Design, synthesis and evaluation of (E)-1-(4-(2-(1H-pyrazol-5-yl)vinyl)phenyl) derivatives as next generation selective RET inhibitors overcoming RET solvent front mutations (G810C/R)” (Eur J Med Chem, 2025):

Tests used:
BaF3 [1] = assay: Antiproliferative activity against mouse BaF3 cells harbouring CCDC6-RET V804M mutant assessed as inhibition of cell proliferation incubated for 72 hrs by CCK-8 assay; assay type: functional, cell-based; conditions: BaF3, 72 h
BaF3 [2] = assay: Antiproliferative activity against mouse BaF3 cells harbouring CCDC6-RET G810R mutant assessed as inhibition of cell proliferation incubated for 72 hrs by CCK-8 assay; assay type: functional, cell-based; conditions: BaF3, 72 h
BaF3 [3] = assay: Antiproliferative activity against mouse BaF3 cells harbouring CCDC6-RET assessed as inhibition of cell proliferation incubated for 72 hrs by CCK-8 assay; assay type: functional, cell-based; conditions: BaF3, 72 h
BaF3 [4] = assay: Antiproliferative activity against mouse BaF3 cells harbouring CCDC6-RET G810C mutant assessed as inhibition of cell proliferation incubated for 72 hrs by CCK-8 assay; assay type: functional, cell-based; conditions: BaF3, 72 h
BaF3 [5] = assay: Antiproliferative activity against mouse BaF3 cells harbouring CCDC6-RET
BaF3 [6] = assay: Antiproliferative activity against mouse BaF3 cells harbouring CCDC6-RET G810R mutant; assay type: functional, cell-based
BaF3 [7] = assay: Antiproliferative activity against mouse BaF3 cells harbouring CCDC6-RET G810C mutant; assay type: functional, cell-based
BaF3 [8] = assay: Antiproliferative activity against mouse BaF3 cells harbouring CCDC6-RET V804M mutant; assay type: functional, cell-based
BaF3 [9] = assay: Antiproliferative activity against mouse BaF3 cells harbouring CCDC6-RET V804M mutant assessed as inhibition of cell proliferation; assay type: functional, cell-based
[10] = molecular target: Proto-oncogene tyrosine-protein kinase receptor Ret (Homo sapiens, UniProt P07949, V804M); assay: Inhibition of RET V804M mutant (unknown origin)
[11] = molecular target: Proto-oncogene tyrosine-protein kinase receptor Ret (Homo sapiens, UniProt P07949, G810R); assay: Inhibition of RET G810R mutant (unknown origin)
[12] = molecular target: Kinesin-1 heavy chain/ Tyrosine-protein kinase receptor RET (Homo sapiens, UniProt P07949); assay: Inhibition of wild type KIF5B-RET (unknown origin); assay type: protein assay
BaF3 [13] = assay: Antiproliferative activity against mouse BaF3 cells harbouring KIF5B-RET assessed as inhibition of cell proliferation; assay type: functional, cell-based
BaF3 [14] = assay: Antiproliferative activity against mouse BaF3 cells harbouring KIF5B-RET G810R mutant assessed as inhibition of cell proliferation; assay type: functional, cell-based
BaF3 [15] = assay: Antiproliferative activity against mouse BaF3 cells harbouring KIF5B-RET G810C mutant assessed as inhibition of cell proliferation; assay type: functional, cell-based

Proto-oncogene tyrosine-protein kinase receptor Ret (Homo sapiens, UniProt P07949, V804M), sequence (P07949 29-1114 V804M limits assumed): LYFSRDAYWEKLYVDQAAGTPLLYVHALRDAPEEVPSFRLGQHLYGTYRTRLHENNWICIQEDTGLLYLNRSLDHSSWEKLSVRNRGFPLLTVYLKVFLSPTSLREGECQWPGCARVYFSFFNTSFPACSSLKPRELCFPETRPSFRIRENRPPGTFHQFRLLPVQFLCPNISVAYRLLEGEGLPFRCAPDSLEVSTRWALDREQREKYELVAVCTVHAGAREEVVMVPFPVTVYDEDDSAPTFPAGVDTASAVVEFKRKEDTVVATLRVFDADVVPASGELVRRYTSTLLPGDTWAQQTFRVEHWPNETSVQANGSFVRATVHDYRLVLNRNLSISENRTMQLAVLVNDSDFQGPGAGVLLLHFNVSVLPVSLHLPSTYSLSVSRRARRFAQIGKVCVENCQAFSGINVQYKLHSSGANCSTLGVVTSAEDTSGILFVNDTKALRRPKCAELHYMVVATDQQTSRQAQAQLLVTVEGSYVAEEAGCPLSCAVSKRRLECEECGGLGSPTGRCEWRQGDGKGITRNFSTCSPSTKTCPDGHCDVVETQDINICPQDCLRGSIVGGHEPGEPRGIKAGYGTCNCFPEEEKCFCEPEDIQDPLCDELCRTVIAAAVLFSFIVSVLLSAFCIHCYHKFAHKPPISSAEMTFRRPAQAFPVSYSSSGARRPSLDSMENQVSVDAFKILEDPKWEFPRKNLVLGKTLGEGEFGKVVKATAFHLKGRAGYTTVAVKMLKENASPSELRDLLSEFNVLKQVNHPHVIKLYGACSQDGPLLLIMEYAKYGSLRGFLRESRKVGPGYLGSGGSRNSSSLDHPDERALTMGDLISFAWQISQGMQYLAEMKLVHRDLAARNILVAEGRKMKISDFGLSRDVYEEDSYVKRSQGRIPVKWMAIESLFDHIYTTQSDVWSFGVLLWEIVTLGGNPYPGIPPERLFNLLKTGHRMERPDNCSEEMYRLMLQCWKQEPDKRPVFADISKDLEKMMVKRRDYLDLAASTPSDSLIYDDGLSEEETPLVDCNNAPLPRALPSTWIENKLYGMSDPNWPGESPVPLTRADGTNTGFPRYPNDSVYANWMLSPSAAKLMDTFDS
Kinesin-1 heavy chain/ Tyrosine-protein kinase receptor RET, sequence (P07949 whole entry): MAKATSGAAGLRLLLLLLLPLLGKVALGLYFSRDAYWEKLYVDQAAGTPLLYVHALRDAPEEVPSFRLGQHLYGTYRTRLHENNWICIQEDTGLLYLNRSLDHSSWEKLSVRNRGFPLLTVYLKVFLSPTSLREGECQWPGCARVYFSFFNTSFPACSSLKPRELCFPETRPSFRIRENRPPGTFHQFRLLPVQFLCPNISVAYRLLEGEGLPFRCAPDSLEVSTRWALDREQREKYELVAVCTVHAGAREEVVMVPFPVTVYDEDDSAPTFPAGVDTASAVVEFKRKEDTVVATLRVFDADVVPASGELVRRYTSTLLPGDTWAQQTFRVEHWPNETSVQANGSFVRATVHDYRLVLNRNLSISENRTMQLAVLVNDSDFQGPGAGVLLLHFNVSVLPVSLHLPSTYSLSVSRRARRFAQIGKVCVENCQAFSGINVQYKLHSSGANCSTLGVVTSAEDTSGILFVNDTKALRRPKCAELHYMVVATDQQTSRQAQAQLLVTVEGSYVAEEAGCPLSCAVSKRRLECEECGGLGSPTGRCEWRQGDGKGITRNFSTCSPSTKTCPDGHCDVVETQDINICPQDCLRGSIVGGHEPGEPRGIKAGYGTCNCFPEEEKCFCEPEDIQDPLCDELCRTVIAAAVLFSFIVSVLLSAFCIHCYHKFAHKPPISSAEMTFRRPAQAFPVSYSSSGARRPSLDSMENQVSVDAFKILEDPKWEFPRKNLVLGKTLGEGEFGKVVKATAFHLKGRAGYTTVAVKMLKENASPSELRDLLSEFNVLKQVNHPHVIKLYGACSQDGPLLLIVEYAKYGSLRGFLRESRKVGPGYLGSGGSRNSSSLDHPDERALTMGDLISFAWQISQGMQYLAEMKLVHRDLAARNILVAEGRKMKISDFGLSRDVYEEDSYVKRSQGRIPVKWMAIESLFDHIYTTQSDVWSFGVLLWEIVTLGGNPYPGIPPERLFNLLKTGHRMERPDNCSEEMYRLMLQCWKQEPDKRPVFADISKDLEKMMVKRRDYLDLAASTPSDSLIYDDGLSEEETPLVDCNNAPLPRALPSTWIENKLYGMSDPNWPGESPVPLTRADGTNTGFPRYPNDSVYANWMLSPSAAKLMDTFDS
Kinesin-1 heavy chain/ Tyrosine-protein kinase receptor RET, sequence (P33176 whole entry, further chain): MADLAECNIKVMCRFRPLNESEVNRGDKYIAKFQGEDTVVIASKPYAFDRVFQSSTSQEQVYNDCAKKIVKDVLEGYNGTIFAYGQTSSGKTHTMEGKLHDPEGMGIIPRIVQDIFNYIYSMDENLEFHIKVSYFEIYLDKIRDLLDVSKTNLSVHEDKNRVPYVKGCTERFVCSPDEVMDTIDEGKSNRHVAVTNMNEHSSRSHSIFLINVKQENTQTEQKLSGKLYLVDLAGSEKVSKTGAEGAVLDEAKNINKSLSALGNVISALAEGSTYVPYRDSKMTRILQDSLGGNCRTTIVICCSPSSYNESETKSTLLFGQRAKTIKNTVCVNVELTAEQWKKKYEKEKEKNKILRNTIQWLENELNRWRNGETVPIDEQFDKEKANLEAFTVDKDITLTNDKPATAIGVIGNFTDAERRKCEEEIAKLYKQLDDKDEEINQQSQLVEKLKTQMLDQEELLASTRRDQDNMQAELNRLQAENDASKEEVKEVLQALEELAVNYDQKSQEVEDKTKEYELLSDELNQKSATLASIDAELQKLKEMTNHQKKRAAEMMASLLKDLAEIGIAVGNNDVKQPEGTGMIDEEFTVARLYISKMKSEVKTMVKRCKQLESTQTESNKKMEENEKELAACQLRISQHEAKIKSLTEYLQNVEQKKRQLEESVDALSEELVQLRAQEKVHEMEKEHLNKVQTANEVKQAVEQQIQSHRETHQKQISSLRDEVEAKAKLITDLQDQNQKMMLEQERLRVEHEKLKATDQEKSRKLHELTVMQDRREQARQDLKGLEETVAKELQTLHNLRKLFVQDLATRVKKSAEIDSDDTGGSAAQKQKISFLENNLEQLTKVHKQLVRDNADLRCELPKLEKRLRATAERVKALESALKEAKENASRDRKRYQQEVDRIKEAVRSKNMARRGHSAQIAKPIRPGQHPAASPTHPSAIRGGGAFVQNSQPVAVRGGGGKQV
Proto-oncogene tyrosine-protein kinase receptor Ret (Homo sapiens, UniProt P07949, G810R), sequence (P07949 29-1114 G810R limits assumed): as the sequence (P07949 29-1114 V804M limits assumed) above, with M776V, G782R counted along it

SMILES	IC50 (BaF3 [1])	IC50 (BaF3 [2])	IC50 (BaF3 [3])	IC50 (BaF3 [4])	other results
COc1cncc(-c2cn(C)nc2/C=C/c2ccc(NC(=O)Nc3cc(C(C)(C)C(F)(F)F)on3)cc2)c1	0.719 µM	1.13 µM	0.126 µM	0.421 µM	–
COc1cncc(-c2cn[nH]c2/C=C/c2ccc(NC(=O)Nc3cc(C(C)(C)C(F)(F)F)on3)cc2C)c1	0.632 µM	0.471 µM	0.271 µM	0.499 µM	–
COc1ccc(-c2cn[nH]c2/C=C/c2ccc(NC(=O)Nc3cc(C(C)(C)C(F)(F)F)on3)cc2)cn1	2.02 µM	0.301 µM	0.0985 µM	0.117 µM	–
COc1ccc(CN2[C@@H]3C[C@H]2CN(c2ccc(-c4cc(OCC(C)(C)O)cn5ncc(C#N)c45)cn2)C3)cn1	–	–	–	–	IC50 (BaF3 [9]): 0.026 µM
COc1cncc(-c2cn[nH]c2/C=C/c2ccc(NC(=O)Nc3cc(C(C)(C)C(F)(F)F)on3)c(F)c2)c1	0.564 µM	0.022 µM	0.0123 µM	0.0455 µM	–
COc1cncc(-c2cn[nH]c2/C=C/c2ccc(NC(=O)Nc3cc(C(C)(C)C(F)(F)F)on3)cc2OC)c1	1.05 µM	0.443 µM	0.133 µM	0.7 µM	–
CN1CCN(Cc2ccc(NC(=O)c3cncc(C#Cc4cnc(N)c5ncccc45)c3)cc2C(F)(F)F)CC1	–	–	–	–	IC50 [10]: 0.0288 µM; IC50 [11]: 0.0288 µM; IC50 [12]: 0.00389 µM
COc1cncc(-c2cn[nH]c2/C=C/c2ccc(NC(=O)Nc3cc(C(C)(C)C(F)(F)F)on3)cc2Cl)c1	0.421 µM	0.246 µM	0.108 µM	0.309 µM	–
COC(=O)c1cncc(-c2cn[nH]c2/C=C/c2ccc(NC(=O)Nc3cc(C(C)(C)C(F)(F)F)on3)cc2)c1	1.02 µM	0.428 µM	0.0894 µM	0.377 µM	–
COc1cc(-c2cn[nH]c2/C=C/c2ccc(NC(=O)Nc3cc(C(C)(C)C(F)(F)F)on3)cc2)ccn1	1.22 µM	0.208 µM	0.0854 µM	0.121 µM	–
C[C@H]1CNC(=O)c2cnn3cc4c(nc23)N(Cc2cc(F)cnc2O1)[C@@H]1CCC[C@@H]1O4 [ENBEZOTINIB]	–	–	–	–	IC50 (BaF3 [13]): 0.001 µM; IC50 (BaF3 [14]): 0.001 µM; IC50 (BaF3 [15]): 0.001 µM
COc1cncc(-c2cn[nH]c2/C=C/c2ccc(NC(=O)Nc3cc(C(C)(C)C(F)(F)F)on3)c(C)c2)c1	0.803 µM	0.0294 µM	0.0131 µM	0.0264 µM	–
COc1cncc(-c2cn[nH]c2/C=C/c2ccc(NC(=O)Nc3cc(C(C)(C)C(F)(F)F)on3)cc2)c1	0.554 µM	0.133 µM	0.046 µM	0.046 µM	–
COc1cncc(-c2c[nH]nc2/C=C\c2ccc(NC(=O)Nc3cc(C(C)(C)C(F)(F)F)on3)cc2)c1	1.79 µM	0.812 µM	0.406 µM	0.694 µM	–
CNC(=O)c1cncc(-c2cn[nH]c2/C=C/c2ccc(NC(=O)Nc3cc(C(C)(C)C(F)(F)F)on3)cc2)c1	3.07 µM	1.21 µM	0.222 µM	0.737 µM	–
CC(C)(c1cc(NC(=O)Nc2ccc(/C=C/c3[nH]ncc3-c3cncc(C#N)c3)cc2)no1)C(F)(F)F	0.844 µM	0.278 µM	0.175 µM	0.205 µM	–

Continued, in another order:

IC50 (BaF3 [1])	IC50 (BaF3 [2])	IC50 (BaF3 [3])	IC50 (BaF3 [4])	SMILES	other results
0.0049 µM	0.32 µM	0.0039 µM	0.104 µM	CO[C@]1(C(=O)N[C@@H](C)c2ccc(-n3cc(F)cn3)nc2)CC[C@H](c2nc(C)cc(Nc3cc(C)[nH]n3)n2)CC1 [PRALSETINIB]	IC50 (BaF3 [5]): 0.005 µM; IC50 (BaF3 [6]): 0.358 µM; IC50 (BaF3 [7]): 0.114 µM; IC50 (BaF3 [8]): 0.0041 µM
0.231 µM	0.658 µM	0.435 µM	0.363 µM	COc1ccc(-c2c[nH]nc2-c2ccc(NC(=O)Nc3cc(C(C)(C)C(F)(F)F)on3)cc2)cn1	–
3.61 µM	1.03 µM	0.79 µM	0.718 µM	COc1ccc(-c2cn[nH]c2CCc2ccc(NC(=O)Nc3cc(C(C)(C)C(F)(F)F)on3)cc2)cn1	–
1.52 µM	0.836 µM	0.223 µM	0.641 µM	COc1cncc(-c2cnn(C)c2/C=C/c2ccc(NC(=O)Nc3cc(C(C)(C)C(F)(F)F)on3)cc2)c1	–
0.536 µM	0.179 µM	0.127 µM	0.173 µM	COc1cncc(-c2cn[nH]c2/C=C/c2ccc(NC(=O)Nc3cc(C(C)(C)C(F)(F)F)on3)cc2F)c1	–
1.81 µM	2.2 µM	1.06 µM	0.777 µM	COc1cncc(-c2cn[nH]c2/C=C/c2cccc(NC(=O)Nc3cc(C(C)(C)C(F)(F)F)on3)c2)c1	–
0.754 µM	0.352 µM	0.21 µM	0.404 µM	COc1cncc(-c2cn[nH]c2/C=C/c2ccc(NC(=O)Nc3cc(C(C)(C)C(F)(F)F)on3)c(OC)c2)c1	–
0.594 µM	0.143 µM	0.147 µM	0.042 µM	CC(C)(c1cc(NC(=O)Nc2ccc(/C=C/c3[nH]ncc3-c3cncc(F)c3)cc2)no1)C(F)(F)F	–
